In patent publication US20250304596A1, “PYRAZINE DERIVATIVES AND USES THEREOF” (FOGHORN THERAPEUTICS INC., priority 2022, published 2025):

Legend:
HiBit-BRM fusion protein = biological target: T1, HiBit-BRM fusion protein (Homo sapiens, UniProt P51531); assay: HiBiT-BRM cell-based degradation assay (Nano-Glo HiBiT Lytic Detection, 24 h); conditions: stable HeLa cell line expressing HiBiT-BRM; for DC50: read-out: BRM HiBit Degradation IC50
T1 construct: expressed in transfected cells
How it was run: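 A stable HeLa line expressing HiBiT-BRM was treated for 24 h with compound in a 10-point, 3-fold series (30 μM final top dose). Remaining HiBiT-BRM was read by lytic LgBiT complementation luminescence. % degradation was normalised to DMSO (high control) and 2 μM reference BRM/BRG1 degrader (low control).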

[1] = biological target: T2, HiBit-BRG1 fusion protein (Homo sapiens, UniProt P51532); assay: HiBiT-BRG1 cell-based degradation assay (Nano-Glo HiBiT Lytic Detection, 24 h); conditions: stable HeLa cell line expressing HiBit-BRG1 and LgBit; for Dmax: read-out: BRG1 HiBit Degradation Maximum (%); for DC50: read-out: BRMG1 HiBit Degradation IC50
T2 construct: expressed in transfected cells
How it was run: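 HeLa cells stably expressing HiBit-BRG1 and LgBit, treated 24 h with 3-fold dilutions (10 points, duplicate, 30 μM final top dose). Luminescence read after Nano-Glo HiBiT lytic reagent; % degradation scaled between DMSO (high) and 2 μM reference BRM/BRG1 degrader (low control).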

T1 sequence (P51531 whole entry, the tested form may be a part): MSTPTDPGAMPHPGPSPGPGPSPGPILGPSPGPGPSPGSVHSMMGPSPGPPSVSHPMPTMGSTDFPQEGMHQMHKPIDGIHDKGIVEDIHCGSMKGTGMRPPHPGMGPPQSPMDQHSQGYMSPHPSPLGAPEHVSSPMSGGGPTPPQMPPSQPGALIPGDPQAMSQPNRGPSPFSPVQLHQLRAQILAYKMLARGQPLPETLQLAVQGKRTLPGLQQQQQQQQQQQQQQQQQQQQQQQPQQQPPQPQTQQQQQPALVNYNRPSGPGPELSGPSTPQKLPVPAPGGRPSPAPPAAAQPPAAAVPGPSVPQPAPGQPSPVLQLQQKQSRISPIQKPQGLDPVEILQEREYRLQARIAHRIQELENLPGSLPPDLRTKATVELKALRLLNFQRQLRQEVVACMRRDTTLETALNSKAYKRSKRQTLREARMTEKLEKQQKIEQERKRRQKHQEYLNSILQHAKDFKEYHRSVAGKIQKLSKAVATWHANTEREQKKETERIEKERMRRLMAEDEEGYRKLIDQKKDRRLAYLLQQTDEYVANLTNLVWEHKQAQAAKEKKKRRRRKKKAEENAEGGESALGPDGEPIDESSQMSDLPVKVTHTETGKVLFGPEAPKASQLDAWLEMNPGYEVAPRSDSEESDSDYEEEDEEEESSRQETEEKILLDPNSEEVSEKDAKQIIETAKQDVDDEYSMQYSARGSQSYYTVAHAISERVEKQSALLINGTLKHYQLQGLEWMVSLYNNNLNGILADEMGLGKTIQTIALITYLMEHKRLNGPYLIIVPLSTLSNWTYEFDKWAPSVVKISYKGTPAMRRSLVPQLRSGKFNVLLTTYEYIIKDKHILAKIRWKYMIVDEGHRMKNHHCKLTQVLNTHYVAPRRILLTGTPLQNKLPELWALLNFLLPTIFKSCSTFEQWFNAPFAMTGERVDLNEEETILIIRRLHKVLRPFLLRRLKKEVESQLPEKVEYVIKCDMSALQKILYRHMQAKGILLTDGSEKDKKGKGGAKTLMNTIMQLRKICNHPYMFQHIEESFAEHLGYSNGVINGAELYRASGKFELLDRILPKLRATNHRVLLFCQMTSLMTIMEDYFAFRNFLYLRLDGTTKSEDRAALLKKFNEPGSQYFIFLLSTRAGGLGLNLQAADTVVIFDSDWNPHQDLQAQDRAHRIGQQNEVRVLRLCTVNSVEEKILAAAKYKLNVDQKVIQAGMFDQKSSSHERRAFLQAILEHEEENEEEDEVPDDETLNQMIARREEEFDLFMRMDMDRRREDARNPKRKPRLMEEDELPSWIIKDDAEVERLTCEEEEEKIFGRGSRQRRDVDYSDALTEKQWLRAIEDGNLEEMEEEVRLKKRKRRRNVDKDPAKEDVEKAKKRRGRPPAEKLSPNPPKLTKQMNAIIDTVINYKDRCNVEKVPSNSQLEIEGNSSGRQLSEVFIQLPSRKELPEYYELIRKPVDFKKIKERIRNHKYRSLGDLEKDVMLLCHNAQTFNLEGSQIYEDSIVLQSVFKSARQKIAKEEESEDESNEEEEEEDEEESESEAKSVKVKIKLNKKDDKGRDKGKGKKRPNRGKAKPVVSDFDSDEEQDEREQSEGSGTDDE
T2 sequence (P51532 whole entry, the tested form may be a part): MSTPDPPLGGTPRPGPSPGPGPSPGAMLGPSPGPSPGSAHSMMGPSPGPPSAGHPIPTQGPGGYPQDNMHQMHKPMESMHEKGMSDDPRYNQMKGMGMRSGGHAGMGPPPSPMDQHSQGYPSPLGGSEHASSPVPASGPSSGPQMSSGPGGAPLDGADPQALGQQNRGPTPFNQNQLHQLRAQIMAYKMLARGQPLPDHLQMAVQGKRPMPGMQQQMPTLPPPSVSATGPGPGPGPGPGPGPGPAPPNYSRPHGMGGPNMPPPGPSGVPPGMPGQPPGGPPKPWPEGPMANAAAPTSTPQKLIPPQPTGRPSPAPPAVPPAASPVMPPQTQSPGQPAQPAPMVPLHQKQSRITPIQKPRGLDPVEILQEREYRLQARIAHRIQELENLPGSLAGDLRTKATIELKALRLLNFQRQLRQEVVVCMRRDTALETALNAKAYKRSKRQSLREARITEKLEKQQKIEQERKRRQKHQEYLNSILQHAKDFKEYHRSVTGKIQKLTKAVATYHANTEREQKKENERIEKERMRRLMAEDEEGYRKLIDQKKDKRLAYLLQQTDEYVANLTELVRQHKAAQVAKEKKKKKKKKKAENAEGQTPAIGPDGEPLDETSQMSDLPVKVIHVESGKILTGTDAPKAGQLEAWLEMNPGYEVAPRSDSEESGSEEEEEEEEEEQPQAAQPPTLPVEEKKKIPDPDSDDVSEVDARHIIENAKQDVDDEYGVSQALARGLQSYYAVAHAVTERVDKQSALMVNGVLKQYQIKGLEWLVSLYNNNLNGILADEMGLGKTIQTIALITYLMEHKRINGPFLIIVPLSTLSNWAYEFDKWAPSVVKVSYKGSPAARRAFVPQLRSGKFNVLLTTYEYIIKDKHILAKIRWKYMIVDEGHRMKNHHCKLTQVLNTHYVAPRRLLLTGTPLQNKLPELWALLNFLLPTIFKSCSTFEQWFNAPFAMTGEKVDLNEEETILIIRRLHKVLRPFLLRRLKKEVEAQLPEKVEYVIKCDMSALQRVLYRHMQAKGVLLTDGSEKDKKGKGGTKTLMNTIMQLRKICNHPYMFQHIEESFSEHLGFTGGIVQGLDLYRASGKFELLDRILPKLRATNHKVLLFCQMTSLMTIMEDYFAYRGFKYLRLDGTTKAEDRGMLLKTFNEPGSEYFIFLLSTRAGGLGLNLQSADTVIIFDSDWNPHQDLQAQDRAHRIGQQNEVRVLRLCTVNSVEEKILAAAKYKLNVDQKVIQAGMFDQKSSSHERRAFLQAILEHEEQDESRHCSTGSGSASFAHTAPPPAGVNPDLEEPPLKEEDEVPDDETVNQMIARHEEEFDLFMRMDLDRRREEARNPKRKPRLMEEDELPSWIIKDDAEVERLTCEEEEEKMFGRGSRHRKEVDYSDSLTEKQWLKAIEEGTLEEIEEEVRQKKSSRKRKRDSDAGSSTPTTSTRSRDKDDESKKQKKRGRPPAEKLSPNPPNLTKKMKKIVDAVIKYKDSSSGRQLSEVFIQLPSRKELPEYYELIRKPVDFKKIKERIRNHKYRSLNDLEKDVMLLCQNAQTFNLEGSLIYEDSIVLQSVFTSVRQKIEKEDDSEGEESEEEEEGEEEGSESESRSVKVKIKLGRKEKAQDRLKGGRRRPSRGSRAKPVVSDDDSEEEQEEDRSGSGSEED

Cc1ncsc1-c1ccc([C@H](C)NC(=O)[C@@H]2C[C@@H](O)CN2C(=O)[C@@H](c2cc(-c3cnc(N4CC[C@@H](c5sc6nnc(-c7ccccc7O)cc6c5C)C4)nc3)no2)C(C)C)cc1 [Compound 47, (2S,4R)-4-hydroxy-1-((R)-2-(3-(2-((R)-3-(3-(2-hydroxyphenyl)-5-methylthieno[2,3-c]pyridazin-6-yl)pyrrolidin-1-yl)pyrimidin-5-yl)isoxazol-5-yl)-3-methylbutanoyl)-N-((S)-1-(4-(4-methylthiazol-5-yl)phenyl)ethyl)pyrrolidine-2-carboxamide]
BRM HiBit Degradation Maximum (%) (HiBit-BRM fusion protein): A (“A” indicates maximum degradation ≥75%)
DC50 (HiBit-BRM fusion protein): > 10 nM
Dmax [1]: > 75%
DC50 [1]: < 10 nM

Cc1ncsc1-c1ccc([C@H](C)NC(=O)[C@@H]2C[C@@H](O)CN2C(=O)[C@@H](c2cc(Oc3cnc(N4CCC(c5sc6nnc(-c7ccccc7O)cc6c5C)CC4)nc3)no2)C(C)C)cc1 (single isomer, unassigned) [Compound 51]
BRM HiBit Degradation Maximum (%) (HiBit-BRM fusion protein): A (“A” indicates maximum degradation ≥75%)
DC50 (HiBit-BRM fusion protein): > 10 nM
Dmax [1]: < 50%
DC50 [1]: > 1000 nM

Cc1ncsc1-c1ccc([C@H](C)NC(=O)[C@@H]2C[C@@H](O)CN2C(=O)[C@@H](c2cc(-c3cnc(N4CC[C@H](c5cc6nnc(-c7ccccc7O)cc6s5)C4)nc3)no2)C(C)C)cc1 [Compound 91, (2S,4R)-4-hydroxy-1-((R)-2-(3-(2-((S)-3-(3-(2-hydroxyphenyl)thieno[3,2-c]pyridazin-6-yl)pyrrolidin-1-yl)pyrimidin-5-yl)isoxazol-5-yl)-3-methylbutanoyl)-N-((S)-1-(4-(4-methylthiazol-5-yl)phenyl)ethyl)pyrrolidine-2-carboxamide]
BRM HiBit Degradation Maximum (%) (HiBit-BRM fusion protein): A (“A” indicates maximum degradation ≥75%)
DC50 (HiBit-BRM fusion protein): < 10 nM
Dmax [1]: > 50%

Cc1ncsc1-c1ccc([C@H](C)NC(=O)[C@@H]2C[C@@H](O)CN2C(=O)[C@@H](c2cc(N3CCC4(CC[C@H](c5sc6nnc(-c7ccccc7O)cc6c5C)C4)CC3)no2)C(C)C)cc1 [Compound 81, (2S,4R)-4-hydroxy-1-((R)-2-(3-((S)-2-(3-(2-hydroxyphenyl)-5-methylthieno[2,3-c]pyridazin-6-yl)-8-azaspiro[4.5]decan-8-yl)isoxazol-5-yl)-3-methylbutanoyl)-N-((S)-1-(4-(4-methylthiazol-5-yl)phenyl)ethyl)pyrrolidine-2-carboxamide]
BRM HiBit Degradation Maximum (%) (HiBit-BRM fusion protein): A (“A” indicates maximum degradation ≥75%)
DC50 (HiBit-BRM fusion protein): > 10 nM
Dmax [1]: < 50%

Cc1ncsc1-c1ccc([C@H](C)NC(=O)[C@@H]2C[C@@H](O)CN2C(=O)[C@@H](c2cc(-c3cnc(N4CCC(c5cc6cc(-c7ccccc7O)nnc6s5)CC4)nc3)no2)C(C)C)cc1 [Compound 54, (2S,4R)-4-hydroxy-1-((R)-2-(3-(2-(4-(3-(2-hydroxyphenyl)thieno[2,3-c]pyridazin-6-yl)piperidin-1-yl)pyrimidin-5-yl)isoxazol-5-yl)-3-methylbutanoyl)-N-((S)-1-(4-(4-methylthiazol-5-yl)phenyl)ethyl)pyrrolidine-2-carboxamide]
BRM HiBit Degradation Maximum (%) (HiBit-BRM fusion protein): A (“A” indicates maximum degradation ≥75%)
DC50 (HiBit-BRM fusion protein): < 10 nM
Dmax [1]: < 50%
DC50 [1]: > 1000 nM

Cc1ncsc1-c1ccc([C@H](C)NC(=O)[C@@H]2C[C@@H](O)CN2C(=O)[C@@H](c2cc(-c3cnc(N4CC[C@@H](c5cc6cc(-c7ccccc7O)nnc6s5)C4)nc3)no2)C(C)C)cc1 (single isomer, unassigned) [Compound 5]
BRM HiBit Degradation Maximum (%) (HiBit-BRM fusion protein): A (“A” indicates maximum degradation ≥75%)
DC50 (HiBit-BRM fusion protein): < 10 nM
Dmax [1]: < 50%
DC50 [1]: > 1000 nM
